Source: patent US8673888B2, “Depsipeptide for therapy of kidney cancer” (The United States of America, represented by the Secretary, …, priority 2002, dated 2014)

Legend:
[1] = tested on: clear cell renal carcinoma; assay: Antineoplastic response in a patient with clear cell renal carcinoma (RECIST criteria); assay type: in vivo, human
Method: This patient was a person with a history of clear cell renal carcinoma that was diagnosed in 1996. The patient received a total of 10 doses of FR901228: FR901228 was administered at 9.10 mg/m^2 on day 1 and day 5 of the first cycle (21 days), 9.10 mg/m^2 on day 1 of the second cycle (21 days), 9.10 mg/m^2 on day 1 and day 5 of the third cycle (28 days), 9.10 mg/m^2 on day 1 of the fourth cycle (22 days), 12.70 mg/m^2 on day 1 of the fifth cycle (20 days), 17.8 mg/m^2 on day 1 of the sixth cycle (23 days), 17.8 mg/m^2 on day 1 of the seventh cycle (23 days) and 17.8 mg/m^2 on day 1 of the eighth cycle (21 days) by continuous infusion for 4 hours. The treatment effect was evaluated based on the RECIST criteria.

[2] = tested on: human kidney tumor (RXF-631L); assay: Antitumor effect on human renal tumor xenograft (RXF-631L) in nude mice; assay type: in vivo, mouse; details: RXF-631L s.c. xenograft in nude mice; 3.2 and 1.8 mg/kg i.v. q4d×3; FIG. 1
Method: A recommended amount of FR901228 was weighed, a solvent (10% HCO-60 (Nihon Surfactant Kogyo K.K./saline) was added and the mixture was ultrasonicated for dissolution. The positive control substance, Taxol, was dissolved in Cremophor EL (SIGMA/ethanol (1:1)) to a concentration of 24 mg/mL before test and preserved in refrigerator. When in use, a 9-fold amount of physiological saline was added to dilute the substance to 2.4 mg/mL (solvent component: 5% Cremophor EL-5% ethanol-90% saline).
For the antitumor activity test of the drug, BALB/cANnNCrj-nu/nu mice (female, 6-week-old) were purchased from Charles River Japan (Yokohama, Japan), and after acclimation for more than 1 week, subjected to the test. The mice were reared in an SPF environment, where free access to water and feed was allowed. […]
Fragments (3×3×3 mm) of RXF-631L tumor were subcutaneously implanted into the right flank of BALB/cANnNCrj-nu/nu mice. […] The tumor volume was calculated from the formula: tumor volume (mm^3)=½×L×W^2 where L and W represent the length and width of the tumor mass, respectively.
The administration was started on the day the mice were grouped (Day 0). […] The liquid amount of administration was calculated based on the body weight measured on the day of administration (0.1 mL/10 g body weight).
The tumor size (length, width) and body weight were measured twice a week from Day 0.

## C/C=C1\NC(=O)[C@H]2CSSCC/C=C/[C@H](CC(=O)N[C@H](C(C)C)C(=O)N2)OC(=O)[C@H](C(C)C)NC1=O [FR901228]
[1]; one patient, 9.10 mg/m^2 by 4 h continuous infusion, after the first two cycles
  treatment effect (RECIST criteria): partial response
[1]; same patient, 10 doses of 9.10-17.8 mg/m^2, after cycle 8
  treatment effect (RECIST criteria): disease progression
[2]
  growth of human kidney cancer in vivo (tumor size): suppressed the growth
